Assay results published in the supplement of paper PMC10307832.

Key:
Assay in all cases: relative viability (nuclei count vs DMSO), 5 days (fraction); higher = more cells survive
Neratinib + Palbociclib = compound: CCOc1cc2ncc(C#N)c(Nc3ccc(OCc4ccccn4)c(Cl)c3)c2cc1NC(=O)/C=C/CN(C)C [Neratinib] + CC(=O)c1c(C)c2cnc(Nc3ccc(N4CCNCC4)cn3)nc2n(C2CCCC2)c1=O [Palbociclib] (partner 0.5 µM)
Procedure, shortened: (§1)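 For relative viability, nuclei counts in treated wells were divided by those in vehicle wells. Lung cancer cell lines had been pin-tool dosed in 1536-well plates the day after seeding and cultured for 5 days, then fixed and stained in one step (final 0.05% Triton X-100, 1% formaldehyde, 1 ug/ml Hoechst) and imaged at 4×. Doses were one drug alone or a fixed anchor-drug dose plus five library-drug doses (not always all listed) in √10 steps, and values are duplicate-plate medians.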

Neratinib + Bortezomib = compound: CCOc1cc2ncc(C#N)c(Nc3ccc(OCc4ccccn4)c(Cl)c3)c2cc1NC(=O)/C=C/CN(C)C [Neratinib] + CC(C)C[C@H](NC(=O)[C@H](Cc1ccccc1)NC(=O)c1cnccn1)B(O)O [Bortezomib] (partner 0.002 µM)
Procedure, shortened: as §1

Neratinib + Alpelisib = compound: CCOc1cc2ncc(C#N)c(Nc3ccc(OCc4ccccn4)c(Cl)c3)c2cc1NC(=O)/C=C/CN(C)C [Neratinib] + Cc1nc(NC(=O)N2CCC[C@H]2C(N)=O)sc1-c1ccnc(C(C)(C)C(F)(F)F)c1 [Alpelisib] (partner 2 µM)
Procedure, shortened: as §1

Neratinib + Dasatinib = compound: CCOc1cc2ncc(C#N)c(Nc3ccc(OCc4ccccn4)c(Cl)c3)c2cc1NC(=O)/C=C/CN(C)C [Neratinib] + Cc1nc(Nc2ncc(C(=O)Nc3c(C)cccc3Cl)s2)cc(N2CCN(CCO)CC2)n1 [Dasatinib] (partner 0.075 µM)
Procedure, shortened: as §1

| Cell Line | relative viability (Neratinib + Palbociclib; first compound 0.01 µM) | relative viability (Neratinib + Palbociclib; first compound 0.03162 µM) | relative viability (Neratinib + Palbociclib; first compound 0.1 µM) | relative viability (Neratinib + Palbociclib; first compound 0.3162 µM) | relative viability (Neratinib + Palbociclib; first compound 1 µM) | relative viability (Neratinib + Bortezomib; first compound 0.01 µM) | relative viability (Neratinib + Bortezomib; first compound 0.03162 µM) | relative viability (Neratinib + Bortezomib; first compound 0.3162 µM) | relative viability (Neratinib + Bortezomib; first compound 1 µM) | relative viability (Neratinib + Alpelisib; first compound 0.01 µM) | relative viability (Neratinib + Alpelisib; first compound 0.03162 µM) | relative viability (Neratinib + Alpelisib; first compound 0.3162 µM) | relative viability (Neratinib + Alpelisib; first compound 1 µM) | relative viability (Neratinib + Dasatinib; first compound 0.01 µM) | relative viability (Neratinib + Dasatinib; first compound 0.03162 µM) | relative viability (Neratinib + Dasatinib; first compound 0.1 µM) | relative viability (Neratinib + Dasatinib; first compound 0.3162 µM) | relative viability (Neratinib + Dasatinib; first compound 1 µM) | relative viability (Neratinib + Alpelisib; first compound 0.1 µM) | relative viability (Neratinib + Bortezomib; first compound 0.1 µM) |
| --- | --- | --- | --- | --- | --- | --- | --- | --- | --- | --- | --- | --- | --- | --- | --- | --- | --- | --- | --- | --- |
| NCI-H460 | 0.19 | 0.215 | 0.171 | 0.166 | 0.0933 | 1.22 | 1.36 | 1.27 | 0.587 | 0.598 | 0.6 | 0.403 | 0.0801 | 0.524 | 0.527 | 0.446 | 0.455 | 0.317 |  |  |
| NCI-H1793 | 0.257 | 0.276 | 0.239 | 0.241 | 0.23 |  |  |  |  | 0.708 | 0.664 | 0.519 | 0.296 | 0.43 | 0.457 | 0.321 | 0.34 | 0.264 | 0.472 |  |
| NCI-H2347 | 0.401 | 0.41 | 0.341 | 0.494 | 0.479 | 1.01 | 1.12 | 0.721 | 1.11 | 1.1 | 1.11 | 0.935 | 0.9 | 0.282 | 0.35 |  | 0.375 | 0.2 | 1.02 | 0.808 |
| HARA | 0.24 | 0.275 | 0.237 | 0.195 | 0.227 | 1.26 | 1.15 | 0.974 | 0.79 |  | 0.813 | 0.385 | 0.264 | 0.303 | 0.312 | 0.196 | 0.155 | 0.148 | 0.545 | 0.97 |
| NCI-H1792 | 0.813 | 0.71 | 0.414 | 0.616 | 0.445 | 1.01 | 0.965 | 0.896 | 0.745 |  | 0.803 | 0.599 | 0.484 | 0.769 | 0.905 | 0.738 | 0.684 | 0.368 | 0.639 | 0.897 |
| NCI-H1703 |  |  |  |  |  | 0.335 | 0.345 | 0.233 | 0.18 | 0.36 | 0.354 | 0.205 | 0.165 |  |  |  |  |  | 0.279 | 0.394 |
| CAL-12T | 0.41 | 0.478 | 0.179 | 0.118 | 0.184 | 0.949 | 1.01 | 0.508 | 0.335 | 1.1 | 1.21 | 0.517 | 0.201 | 0.325 | 0.475 | 0.212 | 0.13 | 0.122 | 0.886 | 0.785 |
| PC-3 [JPC-3] | 0.513 | 0.559 | 0.492 | 0.544 | 0.471 | 0.834 | 0.844 | 0.802 | 0.365 | 1.07 | 1.07 | 0.918 | 0.316 | 1.11 | 1.1 | 0.885 | 0.757 | 0.286 | 1.02 | 0.82 |
| NCI-H2087 | 0.212 | 0.271 | 0.217 | 0.182 | 0.14 | 0.775 | 0.867 | 0.782 | 0.857 | 1.15 | 1.11 | 1.05 |  | 0.936 | 0.888 | 0.605 | 0.584 | 0.373 |  |  |
| NCI-H1395 | 0.66 | 0.709 | 0.63 | 0.58 | 0.414 |  |  |  |  | 1.07 | 1.17 | 1.07 | 0.729 | 0.406 | 0.388 | 0.458 | 0.413 | 0.318 | 1.06 |  |
| SW 900 |  | 0.56 | 0.537 | 0.372 | 0.288 |  |  |  |  |  |  |  |  | 0.544 | 0.732 | 0.392 | 0.458 | 0.454 |  |  |
| NCI-H520 | 0.191 | 0.242 |  | 0.213 | 0.183 | 0.468 | 0.788 | 0.426 | 0.31 | 0.955 | 1.14 | 0.819 | 0.547 | 0.212 | 0.199 | 0.228 | 0.171 | 0.147 | 0.905 | 0.448 |
| A549 |  |  |  |  |  |  |  |  |  | 0.79 | 0.601 |  | 0.291 |  |  |  |  |  | 0.458 |  |
| IA-LM |  |  |  |  |  | 0.952 | 0.908 | 0.891 | 0.507 | 0.846 | 0.894 | 0.782 | 0.486 |  |  |  |  |  | 0.647 | 0.787 |
| EKVX | 0.384 | 0.448 | 0.243 | 0.132 | 0.152 | 1.02 | 1.18 | 0.271 | 0.184 | 0.878 | 0.973 | 0.284 | 0.161 | 0.632 | 0.676 | 0.443 | 0.243 | 0.253 | 0.645 | 0.894 |
| ChaGo-K-1 | 0.997 | 0.986 | 0.93 | 0.956 | 0.867 | 1.06 | 1.04 | 0.745 | 0.912 |  |  |  |  | 0.561 | 0.62 | 0.555 | 0.571 | 0.544 |  | 0.873 |
| NCI-H1755 | 0.457 | 0.463 | 0.33 | 0.456 | 0.432 | 1.08 | 0.934 | 1.04 | 0.958 | 0.947 | 1.04 | 0.946 | 0.409 | 0.478 | 0.466 | 0.379 | 0.436 | 0.319 | 0.899 |  |
| NCI-H23 | 0.48 | 0.579 | 0.482 | 0.563 | 0.318 | 0.964 | 1.31 | 1.13 | 0.821 | 0.832 | 0.716 | 0.686 | 0.329 | 0.695 | 0.876 | 0.779 | 0.825 | 0.537 | 0.653 | 1.07 |
| NCI-H2126 | 0.33 | 0.347 |  | 0.344 | 0.309 | 1.2 | 1.13 | 1.07 | 0.821 | 0.829 | 0.723 | 0.679 | 0.382 | 0.589 | 0.602 | 0.523 | 0.426 | 0.338 | 0.724 | 1.05 |
